Reference: US9358281B2, “Methods, agents and peptides for inducing an innate immune response in HIV vaccination” (New York University, priority 2009, dated 2016)

System: monocyte-derived dendritic cells (MDDC)
Format: cell-based, human
Details: added during the first 24 hours

| Compound | effect on transduction efficiency |
| --- | --- |
| Cc1cn([C@H]2C[C@H](N=[N+]=[N-])[C@@H](CO)O2)c(=O)[nH]c1=O [AZT, Zidovudine] | inhibited transduction efficiency |
| Cc1nnc(C(=O)NC(C)(C)c2nc(C(=O)NCc3ccc(F)cc3)c(O)c(=O)n2C)o1 [RAL, Raltegravir] | inhibited transduction efficiency |
